Reference: the supplement of paper PMC10307832

Key:
Assay in all cases: relative viability (nuclei count vs DMSO), 5 days (fraction); higher = more cells survive
[1] = compound: COc1cc2/c(=N/c3ccc(Br)cc3F)nc[nH]c2cc1OCC1CCN(C)CC1 [Vandetanib] + Nc1ncn([C@H]2C[C@H](O)[C@@H](CO)O2)c(=O)n1 [Decitabine] (partner 2 µM)
Procedure, shortened: (§1)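 Values are medians from duplicate plates. Each reflects relative viability, defined as the nuclei count of treated wells over that of vehicle wells. Lung cancer cell lines in 1536-well plates were pin-tool dosed one day after seeding with one drug alone or with a fixed anchor-drug dose plus five library-drug doses (not always all listed) in √10 steps, then fixed, stained and imaged at 4× after 5 days.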

[2] = compound: COc1cc2/c(=N/c3ccc(Br)cc3F)nc[nH]c2cc1OCC1CCN(C)CC1 [Vandetanib] + C[C@@H](Oc1cc(-c2cnn(C3CCNCC3)c2)cnc1N)c1c(Cl)ccc(F)c1Cl [Crizotinib] (partner 1 µM)
Procedure, shortened: as §1

[3] = compound: COc1cc(N2CCC(N3CCN(C)CC3)CC2)ccc1Nc1ncc(Cl)c(Nc2ccccc2S(=O)(=O)C(C)C)n1 [NVP-TAE684] + CS(=O)(=O)CCNCc1ccc(-c2ccc3ncnc(Nc4ccc(OCc5cccc(F)c5)c(Cl)c4)c3c2)o1 [Lapatinib] (partner 2 µM)
Procedure, shortened: as §1

[4] = compound: C1=CC=C2C(=C1)N=C(S2)C(C#N)C3=NC(=NC=C3)NCCC4=CN=CC=C4 + CS(=O)(=O)N1CCN(Cc2cc3nc(-c4cccc5[nH]ncc45)nc(N4CCOCC4)c3s2)CC1 [Pictilisib] (partner 1 µM)
Procedure, shortened: as §1

Cell Line | relative viability ([1]; first compound 0.02 µM) | relative viability ([1]; first compound 0.06325 µM) | relative viability ([1]; first compound 0.2 µM) | relative viability ([1]; first compound 0.6325 µM) | relative viability ([1]; first compound 2 µM) | relative viability ([2]; first compound 0.02 µM) | relative viability ([2]; first compound 0.06325 µM) | relative viability ([2]; first compound 0.2 µM) | relative viability ([2]; first compound 0.6325 µM) | relative viability ([2]; first compound 2 µM) | relative viability ([3]; first compound 0.6325 µM) | relative viability ([3]; first compound 2 µM) | relative viability ([4]; first compound 0.005 µM) | relative viability ([4]; first compound 0.01581 µM) | relative viability ([4]; first compound 0.05 µM) | relative viability ([4]; first compound 0.1581 µM) | relative viability ([4]; first compound 0.5 µM) | relative viability ([3]; first compound 0.2 µM)
NCI-H1648 | 0.55 | 0.52 | 0.479 | 0.49 | 0.418 | – | – | – | – | – | – | – | – | – | – | – | – | –
LU99A | 0.804 | 0.828 | 0.676 | 0.834 | 0.771 | 0.546 | 0.498 | 0.63 | 0.522 | 0.577 | 0.974 | 0.543 | 0.281 | 0.354 | 0.336 | 0.394 | 0.338 | –
PC-3 [JPC-3] | 0.876 | 0.847 | 0.72 | 0.661 | 0.488 | 0.96 | 0.943 | 0.935 | 0.811 | 0.52 | 0.446 | 0.387 | 0.605 | 0.643 | 0.722 | 0.731 | 0.672 | 0.472
A549 | 0.189 | 0.267 | 0.281 | 0.252 | 0.34 | 0.777 | 0.69 | 0.862 | 0.686 | 0.683 | – | 0.192 | 0.379 | 0.487 | 0.414 | 0.62 | 0.496 | 1.21
HCC-44 | 0.999 | 0.992 | 0.949 | 0.897 | 0.973 | 0.82 | 0.802 | 0.879 | 0.863 | 0.872 | 1.03 | 0.979 | 0.445 | 0.509 | 0.595 | 0.856 | 0.593 | 1.23
H3255 | 0.766 | 0.559 | 0.565 | 0.387 | 0.207 | 0.882 | 0.847 | 0.739 | 0.519 | 0.208 | 0.18 | 0.167 | 0.493 | 0.449 | 0.47 | 0.553 | 0.535 | 0.279
LXF-289 | 0.376 | 0.382 | 0.362 | 0.348 | 0.393 | 0.801 | 0.789 | 0.827 | 0.828 | 0.792 | – | 0.861 | 0.705 | 0.922 | 0.893 | 0.899 | 0.676 | 0.946
PC-14 | 0.246 | 0.197 | 0.175 | 0.171 | 0.159 | 0.94 | 0.853 | 0.897 | 0.386 | 0.231 | 0.305 | 0.245 | – | 0.785 | 0.778 | 0.498 | 0.533 | 0.336
NCI-H661 | 0.536 | 0.556 | 0.527 | 0.46 | 0.446 | 0.969 | – | 0.99 | 1.06 | 1.03 | 0.51 | 0.493 | 0.382 | 0.358 | 0.44 | 0.403 | 0.211 | 0.518
EKVX | 0.378 | 0.322 | 0.345 | 0.279 | 0.212 | 1.01 | 0.882 | 1.13 | 1.02 | 0.531 | 0.189 | 0.155 | 0.497 | 0.422 | 0.45 | 0.479 | 0.457 | 0.199
Calu-6 | – | – | – | – | – | 0.816 | 0.723 | 0.897 | 0.833 | 0.791 | 0.94 | – | 0.74 | 0.885 | 0.938 | 0.932 | 0.806 | 1.31
NCI-H1703 | – | – | – | – | – | 0.672 | – | 0.515 | 0.547 | 0.234 | 0.994 | 0.392 | 0.242 | 0.223 | 0.218 | 0.261 | 0.252 | 1.41
NCI-H1299 | – | – | – | – | – | 0.932 | 0.902 | 0.927 | 0.967 | 0.95 | 0.964 | 0.836 | 0.682 | 0.941 | 0.807 | 0.875 | 0.834 | 1.03
ChaGo-K-1 | 0.518 | 0.519 | 0.287 | 0.496 | 0.523 | 1.1 | 1.19 | 1.14 | 1.13 | 1.16 | – | – | 0.655 | – | 0.445 | 0.953 | 0.662 | –
NCI-H2228 | – | – | – | – | – | 0.446 | 0.473 | – | 0.484 | 0.479 | 0.212 | 0.321 | 0.341 | 0.283 | 0.37 | 0.307 | 0.402 | 0.458
NCI-H1395 | 0.737 | 0.704 | 0.655 | 0.788 | 0.74 | – | – | – | – | – | 0.921 | 0.859 | 0.602 | – | 0.651 | 0.781 | 0.81 | 1.29
CAL-12T | – | – | – | – | – | 0.778 | 0.846 | 0.799 | 0.707 | 0.364 | 0.471 | 0.305 | 0.607 | – | – | 0.551 | 0.375 | 0.666
SW 900 | 0.406 | 0.39 | – | 0.48 | 0.437 | – | – | – | – | – | – | – | – | – | – | – | – | –
NCI-H441 | 0.243 | 0.22 | 0.222 | 0.277 | 0.217 | 0.926 | 0.751 | 0.687 | 0.88 | 0.856 | – | – | – | 0.458 | 0.549 | 0.55 | 0.494 | –
NCI-H522 | 0.619 | 0.691 | 0.717 | 0.768 | 0.646 | – | – | – | – | – | – | – | – | – | – | – | – | –
NCI-H1793 | 0.424 | 0.407 | 0.517 | 0.401 | 0.439 | – | – | – | – | – | 0.499 | 0.611 | 0.329 | 0.275 | 0.353 | 0.267 | 0.352 | 0.925
IA-LM | – | – | – | – | – | 0.978 | 0.802 | 0.899 | 1.3 | 1.24 | 0.66 | 0.427 | 0.25 | 0.368 | 0.285 | 0.387 | 0.377 | 0.698
LCLC-103H | 0.733 | 0.729 | 0.659 | 0.75 | 0.762 | 1.03 | 1.01 | 1.12 | 1.05 | 1 | – | – | 0.493 | 0.446 | 0.498 | 0.707 | 0.681 | –
